Values after ≈ are worked out from the molar mass of the structure shown. “Also recorded” adds a separate entry of the source. Non-standard residues stand in square brackets, D forms with d. Residues, ends and D or L forms follow the SMILES beside them. No end group written: not given here.
Experiments:
[1] = Circular dichroism spectroscopy; assay type: physicochemical; conditions: CD, 50% TFE (vol/vol), peptide 0.2 mg/mL, room temperature
Description: Peptides were dissolved in ultrapure water or 50% TFE (vol/vol) at a concentration of 0.2 mg/mL for spectroscopy. Spectra of samples in a 1 mm pathlength quartz cuvette were recorded from 180 to 260 nm at 0.5 nm steps using an Applied Photophysics Chirascan Plus CD spectrophotometer operating at room temperature.

MRSA ATCC 33592 = test: MIC determination in broth; assay type: cell-based, Staphylococcus aureus; conditions: cation-adjusted MH broth, ~10^5 CFU/mL, 37°C, 16 h; for MIC, S. aureus ATCC 33592 (SCCmec III): Table S5, STIP3 variants, highest conc. tested 100 μg/mL, 2-fold dilution series
Method in brief: (§1)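 Broth microdilution in cation-adjusted Mueller-Hinton broth; cultures diluted to OD 5 × 10^−4 (∼10^5 CFU/mL) and exposed to 2-fold peptide dilution series. Plates incubated static at 37°C for staphylococci.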

MRSA ATCC BAA-2094 = test: MIC determination in broth; assay type: cell-based, Staphylococcus aureus; conditions: STIP3 variants, highest conc. tested 100 μg/mL; cation-adjusted MH broth, ~10^5 CFU/mL, 2-fold dilution series, 37°C, 16 h
Method in brief: as §1

MRSA ATCC BAA-1683 = test: MIC determination in broth; assay type: cell-based, Staphylococcus aureus; conditions: STIP3 variants, highest conc. tested 100 μg/mL; cation-adjusted MH broth, ~10^5 CFU/mL, 2-fold dilution series, 37°C, 16 h
Method in brief: as §1

S. aureus ATCC 29213 [2] = test: MIC determination in broth; assay type: cell-based, Staphylococcus aureus; conditions: STIP3 variants, highest conc. tested 100 μg/mL; cation-adjusted MH broth, ~10^5 CFU/mL, 2-fold dilution series, 37°C, 16 h
Method in brief: as §1

MRSA ATCC BAA-42 = test: MIC determination in broth; assay type: cell-based, Staphylococcus aureus; conditions: STIP3 variants, highest conc. tested 100 μg/mL; cation-adjusted MH broth, ~10^5 CFU/mL, 2-fold dilution series, 37°C, 16 h
Method in brief: as §1

MRSA ATCC BAA-44 = test: MIC determination in broth; assay type: cell-based, Staphylococcus aureus; conditions: STIP3 variants, highest conc. tested 100 μg/mL; cation-adjusted MH broth, ~10^5 CFU/mL, 2-fold dilution series, 37°C, 16 h
Method in brief: as §1

MRSA ATCC BAA-41 = test: MIC determination in broth; assay type: cell-based, Staphylococcus aureus; conditions: STIP3 variants, highest conc. tested 100 μg/mL; cation-adjusted MH broth, ~10^5 CFU/mL, 2-fold dilution series, 37°C, 16 h
Method in brief: as §1

MRSA ATCC BAA-2313 = test: MIC determination in broth; assay type: cell-based, Staphylococcus aureus; conditions: STIP3 variants, highest conc. tested 100 μg/mL; cation-adjusted MH broth, ~10^5 CFU/mL, 2-fold dilution series, 37°C, 16 h
Method in brief: as §1

M. luteus ATCC 4698 = test: MIC determination in broth; assay type: cell-based, Micrococcus luteus; conditions: cation-adjusted MH broth, ~10^5 CFU/mL, 30°C, 48 h
Description: M. luteus ATCC 4698, S. aureus ATCC 29213, a panel of 7 MRSA (ATCC MP-2) strains, which includes ATCC BAA-41, BAA-42, BAA-44, BAA-1683, BAA-2094, BAA-2313, and 33592, and a series of additional bacterial isolates from human and veterinary cases were used in this study (Table S6). Bacterial strains were routinely grown in lysogeny broth (LB: 10 g/L tryptone, 5 g/L yeast extract, 10 g/L NaCl) at 30°C (M. luteus) or 37°C (Staphylococcus spp.) prior to use in specific experiments described below.
The MICs were measured for bioactive peptides identified from the initial screen. Cation-adjusted Mueller-Hinton (MH) broth was used as the growth medium for MIC determination experiments. Bacterial cultures were diluted to an OD of 5 × 10^−4 (∼10^5 CFU/mL) in 200 μL MH broth mixed with peptides in a 2-fold dilution series arrayed in 96-well plates. Plates were incubated without shaking at 30 or 37°C depending on the organism.

S. aureus = test: MIC of STIP3-1 alanine variants in liquid broth; assay type: cell-based, Staphylococcus aureus; conditions: for Activity against S. aureus in nutrient broth: at 200 μg/mL; for MIC, S. aureus (alanine substituted STIP3-1, liquid broth): Table S4, maximum concentration tested 200 μg/mL, strain not given
Description: The MICs were measured for bioactive peptides identified from the initial screen. […] […] Plates were incubated without shaking at 30 or 37°C depending on the organism.

SspA [3] = test: SspA protease resuspended at 2 mg/mL in 100 mM HEPES (pH 7.8); conditions: 37°C, up to 5 h
SspA [4] = test: SspA protease in 100 mM HEPES (pH 7.8); conditions: Staphylococcus aureus (staphylococcal secreted protease), 37°C, up to 5 h
S. aureus ATCC 29213 [5] = test: Spot-on-lawn assay; assay type: cell-based, Staphylococcus aureus; conditions: 50 μg peptide (about 45 μg of SspA reaction mixture) spotted on inoculated soft agar, 37°C, 16 to 48 h
Description: Peptides (≥70% purity) were resuspended in sterile double distilled water (ddH2O) at a concentration of 10 mg/mL (gross weight), and M. luteus and S. aureus ATCC 29213 were used as indicator strains. To prepare test organisms, the optical density (OD) of overnight cultures was measured and the organisms were diluted to an initial OD of 0.05 (S. aureus) or 0.1 (M. luteus) in soft nutrient agar (0.4% wt/vol) at 50°C. Next, 3 mL of soft agar containing a test organism was overlaid on solid LB agar (1.5% wt/vol). A total of 50 μg of each peptide was spotted on the inoculated surface and plates were incubated for 16 to 48 h at 37 or 30°C.
SspA protease was resuspended at 2 mg/mL in 100 mM HEPES (pH 7.8). Peptide samples (45 μL at 10 mg/mL) were mixed with SspA (5 μL at 2 mg/mL) and incubated at 37°C for a total of 5 h. The antimicrobial activities of the reaction mixtures were assayed by spotting 5 μL (∼45 μg) of each on either M. luteus or S. aureus test organisms as described above. Additional samples were flash frozen in liquid nitrogen and stored at −80°C prior to high-pressure liquid chromatography-mass spectrometry (HPLC/MS) analysis.

## CC[C@@H](C)[C@@H](NC(=O)[C@@H](Cc1c[nH]c2ccccc12)NC(=O)[C@@H](CCCCN)NC(=O)[C@H](NC(=O)[C@@H](CC(C)C)NC(=O)CNC(=O)CNC(=O)[C@H](NC(=O)[C@H](N)[C@H](C)O)C(C)C)C(C)C)C(=O)N[C@H](CC(C)C)C(=O)N[C@H](CCCCN)C(=O)N[C@@H](C(=O)N[C@@H](C(=O)N[C@H](CCCCN)C(=O)N[C@H](CCCCN)C(=O)N[C@H](Cc1ccccc1)C(=O)N[C@H](C)C(N)=O)C(C)C)[C@H](C)O [D-STIP3-29] (H-[dT][dV]GG[dL][dV][dK][dW][dI][dL][dK][dT][dV][dK][dK][dF][dA]-NH2; N-terminus assumed)
[1]
  α-Helical content (%): 47%
MRSA ATCC 33592; Table 1 and text
  MIC (μg/mL) for MRSA ATCC 33592: 6.25 µg/mL
MRSA ATCC 33592
  MIC, S. aureus ATCC 33592 (SCCmec III): 6.25 µg/mL (≈ 3.31 µM)
MRSA ATCC BAA-2094
  MIC, S. aureus ATCC BAA 2094 (SCCmec V): 6.25 µg/mL (≈ 3.31 µM)
MRSA ATCC BAA-1683
  MIC, S. aureus ATCC BAA 1683 (SCCmec IV): 6.25 µg/mL (≈ 3.31 µM)
S. aureus ATCC 29213 [2]
  MIC, S. aureus ATCC 29213: 6.25 µg/mL (≈ 3.31 µM)
MRSA ATCC BAA-42
  MIC, S. aureus ATCC BAA 42 (SCCmec VI): 6.25 µg/mL (≈ 3.31 µM)
MRSA ATCC BAA-44
  MIC, S. aureus ATCC BAA 44 (SCCmec I): 12.5 µg/mL (≈ 6.62 µM)
MRSA ATCC BAA-41
  MIC, S. aureus ATCC BAA 41 (SCCmec II): 6.25 µg/mL (≈ 3.31 µM)
MRSA ATCC BAA-2313
  MIC, S. aureus ATCC BAA 2313 (SCCmec XI): 6.25 µg/mL (≈ 3.31 µM)

## AVGGLVKWILDTVKKFA [T1A]
M. luteus ATCC 4698
  MIC, M. luteus: 12.5 µg/mL
S. aureus
  Activity against S. aureus in nutrient broth: maintained activity

## IIGTINDLIKWIADTVEKYKK
SspA [3]
  cleaved bond: D-L and D-T
  fragment found: KYKK and LIKWIADTVE
SspA [4]
  fragment found: IIGTIND; also recorded: LIKWIAD

## IISTIGDLIKWIIDTVKKFKK
SspA [3]
  cleaved bond: D-T
SspA [4]
  fragment found: IISTIGDLIKWIID; also recorded: TVKKFKK

## IISTIVEFVKLIAETIAKFMK
SspA [3]
  cleaved bond: E-T and E-F
SspA [4]
  fragment found: IISTIVE; also recorded: FVKLIAETIAKFMK; also recorded: TIAKFMK

## IVETVGGLVKWILDTVKKFA
SspA [3]
  cleaved bond: D-T
  fragment found: IVE and TVGGLVKWILDTVKKFA and TVGGLVKWILD
SspA [4]
  fragment found: TVKKFA

## TVAGLVKWILDTVKKFA [G3A]
M. luteus ATCC 4698
  MIC, M. luteus: 50 µg/mL
S. aureus ATCC 29213 [5]
  Inhibition of S. aureus growth, spot-on-lawn: inhibition observed on an agar surface

## TVGALVKWILDTVKKFA [G4A]
M. luteus ATCC 4698
  MIC, M. luteus: 12.5 µg/mL
S. aureus ATCC 29213 [5]
  Inhibition of S. aureus growth, spot-on-lawn: inhibition observed on an agar surface

## TVGGLVKWILATVKKFA [STIP3-2]
M. luteus ATCC 4698
  MIC, M. luteus: 3.13 µg/mL
S. aureus
  MIC, S. aureus (alanine substituted STIP3-1, liquid broth): 100 µg/mL
  Activity against S. aureus in nutrient broth: maintained activity
MRSA ATCC 33592
  MIC, S. aureus ATCC 33592 (SCCmec III): 50 µg/mL
MRSA ATCC BAA-2094
  MIC, S. aureus ATCC BAA 2094 (SCCmec V): 50 µg/mL
MRSA ATCC BAA-1683
  MIC, S. aureus ATCC BAA 1683 (SCCmec IV): 50 µg/mL
S. aureus ATCC 29213 [2]
  MIC, S. aureus ATCC 29213: 100 µg/mL
MRSA ATCC BAA-42
  MIC, S. aureus ATCC BAA 42 (SCCmec VI): 50 µg/mL
MRSA ATCC BAA-44
  MIC, S. aureus ATCC BAA 44 (SCCmec I): 100 µg/mL
MRSA ATCC BAA-41
  MIC, S. aureus ATCC BAA 41 (SCCmec II): 100 µg/mL
MRSA ATCC BAA-2313
  MIC, S. aureus ATCC BAA 2313 (SCCmec XI): 50 µg/mL

## TVGGLVKWILDAVKKFA [T12A]
M. luteus ATCC 4698
  MIC, M. luteus: 12.5 µg/mL
S. aureus
  MIC, S. aureus (alanine substituted STIP3-1, liquid broth): 100 µg/mL
  Activity against S. aureus in nutrient broth: maintained activity

## TVGGLVKWILDTAKKFA [V13A]
M. luteus ATCC 4698
  MIC, M. luteus: 50 µg/mL
S. aureus
  Activity against S. aureus in nutrient broth: maintained activity

## TVGGLVKWILDTVAKFA [K14A]
M. luteus ATCC 4698
  MIC, M. luteus: 12.5 µg/mL
S. aureus ATCC 29213 [5]
  Inhibition of S. aureus growth, spot-on-lawn: inhibition observed on an agar surface

## TVGGLVKWILDTVKAFA [K15A]
M. luteus ATCC 4698
  MIC, M. luteus: 25 µg/mL
S. aureus ATCC 29213 [5]
  Inhibition of S. aureus growth, spot-on-lawn: inhibition observed on an agar surface

## TVGGLVKWILDTVKKFA
SspA [3]
  cleaved bond: Asp11-T12
SspA [4]
  fragment found: TVGGLVKWILD; also recorded: TVKKFA

— publication PMC8694143 (Microbiology Spectrum, 2021)
